Measurements: US20250186541A1, “DLL3 TARGETING PEPTIDES AND CONSTRUCTS THEREOF” (MARIANA ONCOLOGY INC., priority 2023, published 2025)
Numbered stars: 1 amine (or outer) side, 2 acyl side, 3 side chain; on linkers, the order of the positions; unused ones are H or OH. Bridge positions count the residues as written; N and C are the ends. Square brackets hold non-standard residues; d marks the D form. Side chains are listed from the residue outwards. Peptide text beside a SMILES is read from it. * marks the point of attachment. X2 = O=C(O)CN1CCN(CC(=O)O)CCN(CC(=O)N[C@@H](CCCCN*)C(=O)O)CCN(CC(=O)O)CC1; Ala(piperidin-4-yl) = O=C([C@H](CC1CCN([*:3])CC1)N[*:1])[*:2]; DOTA = O=C(O)CN1CCN(CC(=O)O)CCN(CC(=O)*)CCN(CC(=O)O)CC1; 1Nal = N[C@@H](Cc1cccc2ccccc12)C(=O)O; 2Nal = N[C@@H](Cc1ccc2ccccc2c1)C(=O)O; Phe(2-Me) = Cc1ccccc1C[C@H](N)C(=O)O; mXylylene = c1cc(C[*:1])cc(C[*:2])c1; Trx = NC[C@H]1CC[C@H](C(=O)O)CC1; tBuAla = CC(C)(C)C[C@H](N)C(=O)O; Chg = N[C@H](C(=O)O)C1CCCCC1; αMeP = C[C@@]1(C(=O)O)CCCN1; Dap = NC[C@H](N)C(=O)O; CH2 = C([*:1])[*:2]; Ahx = NCCCCCC(=O)O

What follows are compounds tested against T1, human DLL3 (Homo sapiens, UniProt Q9NYJ7) (assay: Affinity determination by Surface Plasmon Resonance (SPR), Biacore, 1:1 binding model). Details: biotinylated human DLL3 on streptavidin chip, 25° C.; NB = nonbinding.
T1 construct: biotin (biotinylated)
T1 sequence (Q9NYJ7 27-618): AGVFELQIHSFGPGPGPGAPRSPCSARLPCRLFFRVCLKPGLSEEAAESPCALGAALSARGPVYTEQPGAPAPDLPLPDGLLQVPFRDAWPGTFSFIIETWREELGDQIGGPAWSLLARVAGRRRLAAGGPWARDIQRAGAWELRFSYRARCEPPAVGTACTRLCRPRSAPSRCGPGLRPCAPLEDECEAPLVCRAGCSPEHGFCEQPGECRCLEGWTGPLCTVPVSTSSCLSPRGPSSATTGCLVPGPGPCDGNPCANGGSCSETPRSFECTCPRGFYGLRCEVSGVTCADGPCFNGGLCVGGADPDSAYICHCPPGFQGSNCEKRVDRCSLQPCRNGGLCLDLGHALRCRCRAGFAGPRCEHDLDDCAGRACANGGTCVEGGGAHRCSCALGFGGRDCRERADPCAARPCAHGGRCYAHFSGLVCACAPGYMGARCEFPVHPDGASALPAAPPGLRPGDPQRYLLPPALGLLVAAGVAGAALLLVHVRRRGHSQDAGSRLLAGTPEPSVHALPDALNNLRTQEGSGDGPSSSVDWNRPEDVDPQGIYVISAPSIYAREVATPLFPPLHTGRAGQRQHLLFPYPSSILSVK
Procedure: Example 3. Binding Affinity of Targeting Moieties Polypeptides to DLL3 Affinity Determination by Surface Plasmon Resonance (SPR)
SPR studies were performed on the compounds disclosed herein using the following protocol. […] Biotinylated target ligand human DLL3 was immobilized on a streptavidin sensor chip. A reference surface was set up for nonspecific binding and refractive index changes. For analysis of the kinetics of interactions, varying concentrations of samples were injected at a flow rate of 100 μL/min using running buffer containing 20 mM phosphate buffer with 2.7 mM KCl, 137 mM NaCl, 0.05% Surfactant P20 and 2% DMSO. Sensorgram curves were fitted with 1:1 binding model, and affinity and kinetic parameters were obtained using Biacore Insight evaluation 4.0. software.

Kd [nM]	Compound
0.113	CC(=O)N[C@H](C)C(=O)N[C@@H](CO)C(=O)N[C@@](C)(CC(=O)O)C(=O)N[C@H]1C/C=C/C[C@@H](C(=O)N2CCC[C@@]2(C)C(=O)N[C@@H](Cc2ccccc2)C(=O)N[C@@H](CC(=O)O)C(N)=O)NC(=O)[C@H](CC(N)=O)NC(=O)[C@H](Cc2ccc3ccccc3c2)NC(=O)[C@H](Cc2ccc(CNC(=O)CN3CCN(CC(=O)O)CCN(CC(=O)O)CCN(CC(=O)O)CC3)cc2)NC(=O)[C@H](CC(C)(C)C)NC(=O)[C@H](Cc2cccc3ccccc23)NC1=O (single isomer, unassigned) [Cpd #193, Ac-(D-Ala)-S-(aMe-Asp)-AllyG(4)-(1Nal)-(t-Bu-Ala)-[PAF(DOTA)]-(2Nal)-N-AllyG(4)-(aMe-P)-F-D-CONH2]
> 300	CC(=O)N[C@@H](CO)C(=O)N[C@@H](CC(=O)O)C(=O)N[C@H]1CSCSC[C@@H](C(=O)N2CCC[C@H]2C(=O)N[C@@H](Cc2ccccc2)C(=O)N[C@@H](CC(=O)O)C(=O)N[C@H](CCCCNC(=O)CN2CCN(CC(=O)O)CCN(CC(=O)O)CCN(CC(=O)O)CC2)C(N)=O)NC(=O)[C@H](CC(N)=O)NC(=O)[C@H](Cc2c[nH]c3ccccc23)NC(=O)[C@H](CCC(N)=O)NC(=O)[C@H](CC(C)C)NC(=O)[C@H](Cc2c[nH]c3ccccc23)NC1=O [Cpd #66, Ac-S-D-C(1)-W-L-Q-W-N-C(1)-P-F-D-D-Lys(DOTA)-CONH2] (Ac-SDCWLQWNCPFD[dK](DOTA)-NH2; linker 3-9 via CH2)
> 30	CC(=O)N[C@H](C(=O)N[C@@H](CO)C(=O)N[C@@H](CC(=O)O)C(=O)N[C@H]1CSCc2cccc(c2)CSC[C@@H](C(=O)N2CCC[C@@]2(C)C(=O)N[C@@H](Cc2ccccc2)C(=O)N[C@@H](CC(=O)O)C(=O)N[C@H](CCCCNC(=O)CN2CCN(CC(=O)O)CCN(CC(=O)O)CCN(CC(=O)O)CC2)C(N)=O)NC(=O)[C@H](CC(N)=O)NC(=O)[C@H](Cc2c[nH]c3ccccc23)NC(=O)[C@H](CCC(N)=O)NC(=O)[C@H](CC(C)C)NC(=O)[C@H](Cc2cccc3ccccc23)NC1=O)C1CCCCC1 [Cpd #144, Ac-(Chg)-S-D-C(mDBX)-(1Nal)-L-Q-W-N-C(2)-(aMe-P)-F-D-D-Lys(DOTA)-CONH2] (Ac-[Chg]SDC[1Nal]LQWNC[αMeP]FD[dK](DOTA)-NH2; linker 4-10 via mXylylene)
0.51	CC(=O)N[C@H](C)C(=O)N[C@@H](CO)C(=O)N[C@@H](CC(=O)O)C(=O)N[C@H]1CSSC[C@@H](C(=O)N2CCC[C@@]2(C)C(=O)N[C@@H](Cc2ccccc2C)C(=O)N[C@@H](CC(=O)O)C(N)=O)NC(=O)[C@H](CC(N)=O)NC(=O)[C@H](Cc2ccc3ccccc3c2)NC(=O)[C@H](CCC(=O)NCCCC[C@H](NC(=O)CN2CCN(CC(=O)O)CCN(CC(=O)O)CCN(CC(=O)O)CC2)C(=O)O)NC(=O)[C@H](CC(C)(C)C)NC(=O)[C@H](Cc2cccc3ccccc23)NC1=O [Cpd #153, Ac-(D-Ala)-S-D-C(3)-(1Nal)-(t-Bu-Ala)-[Glu(εLys(OH)-(DOTA))]-(2Nal)-N-C(3)-(aMe-P)-(2Me-F)-D-CONH2] (Ac-[dA]SDC[1Nal][tBuAla]E(X2)[2Nal]NC[αMeP][Phe(2-Me)]D-NH2; disulfide 4-10)
0.18	CC(=O)N[C@H](C)C(=O)N[C@@H](CO)C(=O)N[C@@H](CC(=O)O)C(=O)N[C@H]1CSSC[C@@H](C(=O)N2CCC[C@@]2(C)C(=O)N[C@@H](Cc2ccccc2)C(=O)N[C@@H](CC(=O)O)C(N)=O)NC(=O)[C@H](CC(N)=O)NC(=O)[C@H](Cc2ccc3ccccc3c2)NC(=O)[C@H](CC2CCN(C(=O)CN3CCN(CC(=O)O)CCN(CC(=O)O)CCN(CC(=O)O)CC3)CC2)NC(=O)[C@H](CC(C)(C)C)NC(=O)[C@H](Cc2cccc3ccccc23)NC1=O [Cpd #157, Ac-(D-Ala)-S-D-C(3)-(1Nal)-(t-Bu-Ala)-[3-(4-piperidinyl-DOTA)-Ala]-(2Nal)-N-C(3)-(aMe-P)-F -D-CONH2] (Ac-[dA]SDC[1Nal][tBuAla][Ala(piperidin-4-yl)](DOTA)[2Nal]NC[αMeP]FD-NH2; disulfide 4-10)
> 300	CC(=O)N[C@H](C)C(=O)N[C@@H](CO)C(=O)N[C@@H](CC(=O)O)C(=O)N[C@H]1CCC(=O)NC[C@@H](C(=O)N2CCC[C@@]2(C)C(=O)N[C@@H](Cc2ccccc2C)C(=O)N[C@@H](CC(=O)O)C(=O)N[C@H](CCCCNC(=O)CN2CCN(CC(=O)O)CCN(CC(=O)O)CCN(CC(=O)O)CC2)C(N)=O)NC(=O)[C@H](CC(N)=O)NC(=O)[C@H](Cc2ccc3ccccc3c2)NC(=O)[C@H](CCC(N)=O)NC(=O)[C@H](CC(C)(C)C)NC(=O)[C@H](Cc2cccc3ccccc23)NC1=O [Cpd #160, Ac-(D-Ala)-S-D-Glu(2)-(1Nal)-(t-Bu-Ala)-Q-(2Nal)-N-Dap(2)-(aMe-P)-(2Me-F)-D-D-Lys(DOTA)-CONH2] (Ac-[dA]SDE[1Nal][tBuAla]Q[2Nal]N[Dap][αMeP][Phe(2-Me)]D[dK](DOTA)-NH2; lactam 4-10)

Further lines, the compound ahead of its results:

Compound	Kd [nM]
CSCC[C@H](NC(C)=O)C(=O)N[C@@H](CO)C(=O)N[C@@H](CC(=O)O)C(=O)N[C@H]1CSSC[C@@H](C(=O)N2CCC[C@H]2C(=O)N[C@@H](Cc2ccccc2)C(=O)N[C@@H](CC(=O)O)C(N)=O)NC(=O)[C@H](CC(N)=O)NC(=O)[C@H](Cc2c[nH]c3ccccc23)NC(=O)[C@H](CCC(N)=O)NC(=O)[C@H](CC(C)C)NC(=O)[C@H](Cc2c[nH]c3ccccc23)NC1=O [Cpd #1, Ac-M-S-D-C(3)-W-L-Q-W-N-C(3)-P-F-D-CONH2] (Ac-MSDCWLQWNCPFD-NH2; disulfide 4-10)	11
CSCC[C@H](NC(=O)CCCCCNC(=O)CN1CCN(CC(=O)O)CCN(CC(=O)O)CCN(CC(=O)O)CC1)C(=O)N[C@@H](CO)C(=O)N[C@@H](CC(=O)O)C(=O)N[C@H]1CSSC[C@@H](C(=O)N2CCC[C@H]2C(=O)N[C@@H](Cc2ccccc2)C(=O)N[C@@H](CC(=O)O)C(N)=O)NC(=O)[C@H](CC(N)=O)NC(=O)[C@H](Cc2c[nH]c3ccccc23)NC(=O)[C@H](CCC(N)=O)NC(=O)[C@H](CC(C)C)NC(=O)[C@H](Cc2c[nH]c3ccccc23)NC1=O [Cpd #7, DOTA-Ahx-M-S-D-C(3)-W-L-Q-W-N-C(3)-P-F-D-CONH2] ({DOTA-Ahx}-MSDCWLQWNCPFD-NH2; disulfide 4-10)	14
CNC(=O)[C@@H](CCCCNC(=O)CN1CCN(CC(=O)O)CCN(CC(=O)O)CCN(CC(=O)O)CC1)NC(=O)[C@H](CC(=O)O)NC(=O)[C@H](Cc1ccccc1)NC(=O)[C@]1(C)CCCN1C(=O)[C@@H]1CSSC[C@H](NC(=O)[C@H](CC(=O)O)NC(=O)[C@H](CO)NC(=O)[C@@H](C)NC(C)=O)C(=O)N[C@@H](Cc2cccc3ccccc23)C(=O)N[C@@H](CC(C)(C)C)C(=O)N[C@@H](CCC(N)=O)C(=O)N[C@@H](Cc2ccc3ccccc3c2)C(=O)N[C@@H](CC(N)=O)C(=O)N1 [Cpd #147, Ac-(D-Ala)-S-D-C(3)-(1Nal)-(t-Bu-Ala)-Q-(2Nal)-N-C(3)-(aMe-P)-F -D-[D-Lys(DOTA)]-CONHMe] (Ac-[dA]SDC[1Nal][tBuAla]Q[2Nal]NC[αMeP]FD[dK](DOTA)-NHMe; disulfide 4-10)	0.13
CC(=O)N[C@H](C)C(=O)N[C@@H](CO)C(=O)N[C@@H](CC(=O)O)C(=O)N[C@H]1CSSC[C@@H](C(=O)N2CCC[C@@]2(C)C(=O)N[C@@H](Cc2ccccc2C)C(=O)N[C@@H](CC(=O)O)C(=O)N[C@H](CCCCNC(=O)CN2CCN(CC(=O)O)CCN(CC(=O)O)CCN(CC(=O)O)CC2)C(=O)O)NC(=O)[C@H](CC(N)=O)NC(=O)[C@H](Cc2ccc3ccccc3c2)NC(=O)[C@H](CCC(N)=O)NC(=O)[C@H](CC(C)(C)C)NC(=O)[C@H](Cc2cccc3ccccc23)NC1=O [Cpd #150, Ac-(D-Ala)-S-D-C(3)-(1Nal)-(t-Bu-Ala)-Q-(2Nal)-N-C(3)-(aMe-P)-(2Me-F)-D-[D-Lys(DOTA)]-COOH] (Ac-[dA]SDC[1Nal][tBuAla]Q[2Nal]NC[αMeP][Phe(2-Me)]D[dK](DOTA)-OH; disulfide 4-10)	0.13
CC(=O)N[C@H](C)C(=O)N[C@H](CO)C(=O)N[C@@H](CC(=O)O)C(=O)N[C@H]1CSSC[C@@H](C(=O)N2CCC[C@@]2(C)C(=O)N[C@@H](Cc2ccccc2C)C(=O)N[C@@H](CC(=O)O)C(N)=O)NC(=O)[C@H](CC(N)=O)NC(=O)[C@H](Cc2ccc3ccccc3c2)NC(=O)[C@H](CCCCNC(=O)[C@H]2CC[C@H](CNC(=O)CN3CCN(CC(=O)O)CCN(CC(=O)O)CCN(CC(=O)O)CC3)CC2)NC(=O)[C@H](CC(C)(C)C)NC(=O)[C@H](Cc2cccc3ccccc23)NC1=O [Cpd #151, Ac-(D-Ala)-S-D-C(3)-(1Nal)-(t-Bu-Ala)-[L-Lys(Chx-DOTA)]-(2Nal)-N-C(3)-(aMe-P)-(2Me-F)-D-CONH2] (Ac-[dA][dS]DC[1Nal][tBuAla]K([Trx-DOTA])[2Nal]NC[αMeP][Phe(2-Me)]D-NH2; disulfide 4-10)	0.28
